Measured values taken from US9580430B2, “9H-pyrimido[4,5-B]indoles and related analogs as BET bromodomain inhibitors” (THE REGENTS OF THE UNIVERSITY OF MICHIGAN, priority 2014, dated 2017).

Tests used:
Format in all cases: cell-based
[1] = test system: 5 prostate cancer and 1 benign prostate cell line; assay: Cell viability assay, panel of prostate cell lines (Cell-Titer GLO); details: three of the AR-signaling positive cells; FIG. 1
Protocol: VCaP prostate cancer cells were grown in DMEM with Glutamax (Gibco), LNCaP, 22RV1, DU145 and PC3 prostate cancer cell lines were grown in RPMI 1640, all were supplemented with 10% FBS (Invitrogen) in 5% CO2 cell culture incubator. The immortalized benign prostate cell line RWPE-1 was grown in keratinocyte media with supplements (Lonza). All cell lines were tested and found to be free of mycoplasma contamination.
(§1) Cells were seeded in 96-well plates at 2000-10,000 cells/well (optimum density for growth) in a total volume of 100 μl media containing 10% FBS. Serially diluted compounds in 100 μl media were added to the cells 12 h later. Following 96 h. incubation, cell viability was assessed by Cell-Titer GLO (Promega). The values were normalized and IC50 was calculated using GraphPad Prism software. […] After 12 days cells were fixed with methanol, stained with crystal violet and photographed. For colorimetric assays, the stained wells were treated with 500 μl 10% acetic acid and the absorbance was measured at 560 nm using a spectrophotometer.

AR-gene signature = assay: Gene expression array, GSEA of the AR target gene signature; details: AR-positive cells; 500 nM, 24 h; FIG. 6
Protocol: (§2) Cells treated with only vehicle or 10 nM DHT served as controls. […] Expression profiling was performed using the Agilent Whole Human Genome Oligo Microarray (SantaClara, Calif.) according to the manufacturer's protocol. All samples were run in technical duplicates or quadruplets against control. Over- and under-expressed gene sets were generated by filtering to include only 2-fold average over- or underexpression (Log ratio with p<0.001) in all hybridizations.

BRD2/3/4 = assay: ChIP-seq of BRD2/3/4 in VCaP cells; details: 500 nM, 12 h
Protocol: (§3) The ChIP assays for BRD2, BRD3, BRD4, AR, RNA PolII, ERG and H3K27ac were performed using HighCell ChIP kit (Diagenode) according to manufacturer's protocol. […] Next, cells were cross-linked for 10 min. with 1% formaldehyde. […] Chromatin equivalent to 5×10^6 cells were used for ChIP using different antibodies. ChIP DNA was isolated (IPure Kit, Diagenode) from samples by incubation with the antibody at 4° C. overnight followed by wash and reversal of cross-linking. The ChIP-seq sample preparation for sequencing was performed according to the manufacturer's instructions (Illumina). […] A single A-base was added to fragment ends by Klenow fragment (3′ to 5′ exo minus; NEB) followed by ligation of Illumina adaptors (Quick ligase, NEB). The adaptor-modified DNA fragments were enriched by PCR using the Illumina Barcode primers and Phusion DNA polymerase (NEB). PCR products were size selected using 3% NuSieve agarose gels (Lonza) followed by gel extraction using QIAEX II reagents (QIAGEN). Libraries were quantified with the Bioanalyzer 2100 (Agilent) and sequenced on the Illumina HiSeq 2000 Sequencer (100 nucleotide read length).

MYC signature = assay: Gene expression array, GSEA of MYC signature, DU145; details: DU145 after JQ1 treatment
Protocol: as §2

[2] = test system: VCaP prostate cancer cells; assay: Cell growth inhibition, VCaP prostate cancer cells (Cell-Titer GLO); details: 8 days; FIG. 22
Protocol: For prostate cancer cell lines, VCaP prostate cancer cells were grown in DMEM with Glutamax (Gibco) supplemented with 10% FBS (Invitrogen) in 5% CO2 cell culture incubator. All cell lines were tested and found to be free of mycoplasma contamination. Cells were seeded in 96-well plates at 2,000-10,000 cells per well (optimum density for growth) in a total volume of […] media containing 10% FBS. Serially diluted compounds in […] media were added to the cells 12 h later. […] The values were normalized and IC50 was calculated using GraphPad Prism software.
as §1

AR-positive cells [3] = assay: Cell cycle analysis and apoptosis (cleaved PARP immunoblot); details: FIG. 2
Protocol: For cell cycle analysis, cells were washed 48 h post-treatment with PBS and fixed in 70% ethanol overnight. The cells were washed again with PBS, stained with propidium iodide and analyzed by flow cytometry.
For Western blot analysis, 200 ug total protein extract was boiled in sample buffer and 10-20 μg aliquots were separated by SDS-PAGE and transferred onto Polyvinylidene Difluoride membrane (GE Healthcare). The membrane was incubated for one hour in blocking buffer [Tris-buffered saline, 0.1% Tween (TBS-T), 5% nonfat dry milk] followed by incubation overnight at 4° C. with the primary antibody. Following a wash with TBS-T, the blot was incubated with horseradish peroxidase-conjugated secondary antibody and signals were visualized by enhanced chemiluminescence system as per manufacturer's protocol (GE Healthcare).

VCaP or LNCaP cells = assay: Matrigel invasion assay, VCaP or LNCaP cells; details: 500 nM
Protocol: Medium containing 10% FBS in the lower chamber served as chemoattractant. […] After 48 h, the non-invading cells and EC matrix were gently removed with a cotton swab and invasive cells located on the lower side of the chamber were stained with crystal violet, air dried, photographed and counted.

BRD4 = assay: ChIP-seq of BRD4 in DHT-stimulated VCaP cells; details: JQ1 500 nM, FIG. 20
Protocol: as §3
(§4) For enrichment plots shown in FIGS. 17, 19 and 20, identified peaks for each sample are centered by peak summit and average coverage per million was counted within 1500 bp relative to the peak center.

AR = assay: ChIP-seq of AR in DHT-stimulated VCaP cells; details: DHT 10 nM plus JQ1 500 nM, MDV3100 10 μM or Bicalutamide 25 μM, FIG. 17
Protocol: as §3, §4

[4] = test system: RWPE and PC3 cells overexpressing ERG; assay: Matrigel invasion assay, RWPE and PC3 cells overexpressing ERG; details: 500 nM
Protocol: Medium containing 10% FBS in the lower chamber served as chemoattractant. […] For colorimetric assays, the inserts were treated with 150 μl of 10% acetic acid and the absorbance measured at 560 nm using a spectrophotometer (GE Healthcare).

AR-positive cells [5] = assay: Long-term colony formation assay; details: 100 nM, 12 days, FIG. 3
Protocol: as §1

## Cc1sc2c(c1C)C(c1ccc(Cl)cc1)=N[C@@H](CC(=O)OC(C)(C)C)c1nnc(C)n1-2 [JQ1]
[1]
  sensitivity of prostate cell lines: sensitive
AR-gene signature
  GSEA of AR-gene signature: significantly repressed
BRD2/3/4
  recruitment of BRD2/3/4 to the chromatin: reduction in the recruitment
MYC signature; gene set MYC_UP.V1_UP
  NES: −0.952
MYC signature; gene set SCHLOSSER_MYC_AND_SERUM_RESPONSE_SYNERGY
  NES: −1.085
MYC signature; gene set SCHLOSSER_MYC_TARGETS_AND_SERUM_RESPONSE_UP
  NES: −0.734
MYC signature; gene set SCHUHMACHER_MYC_TARGETS_UP
  NES: −1.086
[2]
  VCaP cell viability in vitro: suppression of cell growth at sub-micromolar concentrations
AR-positive cells [3]
  cell cycle arrest and apoptosis: induced G0-G1 arrest, apoptosis
VCaP or LNCaP cells
  cell invasion: inhibited invasion
BRD4
  DHT induced BRD4 recruitment to the AR-BRD4 shared loci: almost completely abrogated
AR
  recruitment of AR to target loci: block AR recruitment to a level almost equivalent to MDV3100
[4]
  ERG-mediated invasion: attenuation of ERG-mediated invasion
AR-positive cells [5]
  long term colony-formation: severely inhibited
